From BindingDB's records for patent US20250115578 (Chengdu Kanghong Pharmaceutical, 2025)

Target: Sodium channel protein type 10 subunit alpha (Homo sapiens, UniProt Q9Y5Y9)
Assay: Electrophysiological Assay
Procedure: A capillary glass pipette (BF150-86-10, Sutter Instruments) was pulled into a recording electrode with a micropipette puller (P97, Sutter Instruments). The micromanipulator (MP285, Sutter Instruments) was manipulated under an inverted microscope (IX71, Olympus) to make the recording electrode contact the cell and negative pressure suction was applied to achieve a GQ seal. Then, rapid capacitance compensation was performed, and negative pressure was continued, cell membrane was broken by suction, and whole cell recording mode was formed. Then the slow capacitance was compensated and the membrane capacitance and series resistance were recorded without leakage compensation. When the whole cell recording current was stabilized, dosing was initiated, and the next concentration was detected after acting 5 minutes of each drug concentration. Multiple cells were independently repeated during the recording period. All electrophysiological assays were performed at room temperature. Specifically, 6 concentrations (measuring IC50) or 2 concentrations (preliminary screening) were set for each compound, and the percentage of inhibition of sodium channels was determined by calculating the relative percentage of peak current generated before and after each concentration compound treated cells, and the IC50 value or percentage of inhibition at a specific concentration was calculated using IGOR pro software.

Sequence of Sodium channel protein type 10 subunit alpha (Q9Y5Y9 whole entry): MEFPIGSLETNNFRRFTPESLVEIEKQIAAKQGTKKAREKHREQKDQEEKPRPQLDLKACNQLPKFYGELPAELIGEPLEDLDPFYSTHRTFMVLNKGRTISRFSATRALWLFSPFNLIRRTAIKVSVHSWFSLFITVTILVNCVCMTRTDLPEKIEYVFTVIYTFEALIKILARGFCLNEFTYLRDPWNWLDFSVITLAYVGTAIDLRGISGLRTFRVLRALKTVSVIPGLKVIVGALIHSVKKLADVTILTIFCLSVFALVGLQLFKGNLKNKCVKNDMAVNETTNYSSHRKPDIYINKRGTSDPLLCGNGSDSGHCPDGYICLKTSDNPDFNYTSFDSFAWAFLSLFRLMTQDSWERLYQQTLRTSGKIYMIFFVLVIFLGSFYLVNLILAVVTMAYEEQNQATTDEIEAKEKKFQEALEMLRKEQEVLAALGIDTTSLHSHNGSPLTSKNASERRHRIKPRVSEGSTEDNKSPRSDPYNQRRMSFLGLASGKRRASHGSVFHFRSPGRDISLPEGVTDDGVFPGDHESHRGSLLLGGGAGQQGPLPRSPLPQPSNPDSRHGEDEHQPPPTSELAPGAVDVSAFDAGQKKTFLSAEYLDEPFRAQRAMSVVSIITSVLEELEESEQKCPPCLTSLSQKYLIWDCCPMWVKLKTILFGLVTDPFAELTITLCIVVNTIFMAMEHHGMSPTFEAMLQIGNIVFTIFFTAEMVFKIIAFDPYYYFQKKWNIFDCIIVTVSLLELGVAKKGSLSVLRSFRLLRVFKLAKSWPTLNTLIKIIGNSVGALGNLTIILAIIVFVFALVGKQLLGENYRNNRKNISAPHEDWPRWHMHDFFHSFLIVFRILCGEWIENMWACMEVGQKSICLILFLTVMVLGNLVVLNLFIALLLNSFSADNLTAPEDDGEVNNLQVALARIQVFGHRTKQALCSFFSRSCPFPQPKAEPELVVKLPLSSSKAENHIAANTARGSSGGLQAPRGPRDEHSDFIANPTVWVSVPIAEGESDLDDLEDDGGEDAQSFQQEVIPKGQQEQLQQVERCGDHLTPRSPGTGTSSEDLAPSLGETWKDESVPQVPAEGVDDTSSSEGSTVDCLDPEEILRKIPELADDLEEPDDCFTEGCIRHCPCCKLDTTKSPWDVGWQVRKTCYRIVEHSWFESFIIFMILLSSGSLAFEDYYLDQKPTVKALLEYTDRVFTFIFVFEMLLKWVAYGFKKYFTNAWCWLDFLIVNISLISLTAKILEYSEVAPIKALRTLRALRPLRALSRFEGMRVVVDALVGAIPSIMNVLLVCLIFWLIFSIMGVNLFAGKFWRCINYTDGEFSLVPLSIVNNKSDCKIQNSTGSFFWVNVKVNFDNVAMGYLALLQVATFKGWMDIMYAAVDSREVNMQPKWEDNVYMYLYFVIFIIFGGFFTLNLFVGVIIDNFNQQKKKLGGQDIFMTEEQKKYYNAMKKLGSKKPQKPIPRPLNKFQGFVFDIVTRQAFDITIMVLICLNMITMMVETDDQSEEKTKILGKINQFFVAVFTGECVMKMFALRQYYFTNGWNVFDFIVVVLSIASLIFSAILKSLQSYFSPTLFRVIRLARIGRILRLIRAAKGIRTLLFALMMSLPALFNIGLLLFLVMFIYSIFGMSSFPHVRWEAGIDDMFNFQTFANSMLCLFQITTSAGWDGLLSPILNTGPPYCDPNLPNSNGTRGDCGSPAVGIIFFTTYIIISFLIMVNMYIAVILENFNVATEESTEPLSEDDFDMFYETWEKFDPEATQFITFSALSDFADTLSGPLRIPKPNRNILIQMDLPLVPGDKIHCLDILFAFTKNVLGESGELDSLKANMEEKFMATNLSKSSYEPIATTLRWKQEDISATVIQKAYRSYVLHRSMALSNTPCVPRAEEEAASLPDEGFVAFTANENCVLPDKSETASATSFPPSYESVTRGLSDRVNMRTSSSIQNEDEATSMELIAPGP

IC50 [µM]	SMILES
0.0667	O=C(Nc1cn[nH]c(=O)c1)c1nc2ccccc2nc1N1CCCC(F)(F)CC1 [US20250115578, KH04]
> 0.01	O=C(Nc1cc[nH]c(=O)c1)c1nc2ccccc2nc1N1CCCC(F)(F)CC1 [US20250115578, KH03]
> 0.1	O=C(Nc1ccc[n+]([O-])c1)c1nc2ccccc2nc1N1CCCC(F)(F)CC1 [US20250115578, KH01]
